Results taken from patent US7875638B2, “Synthesis of epothilones, intermediates thereto, analogues and uses thereof” (Sloan-Kettering Institute for Cancer Research, priority 2002, dated 2011).
Values joined by “and” are separate entries in the source; they are usually repeats but may differ in a detail not shown here. Equal entries are not always repeated.

Legend:
[1] = test system: human T-cell lymphoblastic leukemia CCRF-CEM/Taxol xenograft; experiment: CCRF-CEM/Taxol xenograft in nude mice; format: in vivo
[2] = test system: human colon carcinoma HCT-116 xenograft; settings: 96 h

## C/C(=C\c1csc(C)n1)[C@@H]1C/C=C(/C(F)(F)F)C/C=C/[C@H](C)[C@H](O)[C@@H](C)C(=O)C(C)(C)[C@@H](O)CC(=O)O1 [Compound 29, 26-trifluoro-trans-9,10-dehydro-12,13-desoxyepothilone B]
[1]; 15 mg/kg
  Final tumor suppression on D34: 98.8%
[1]; 15 mg/kg, 6 hr-i.v. infusion, Q2Dx7 then Q2Dx5
  Tumor disappearance (mice): 1 out of 4
[1]; 15 mg/kg, 6 hr-i.v. infusion, Q2Dx7 then Q2Dx5, listed as 26-F3-9,10-deH-dEpo B
  Tumor disappearance (mice): 1/3
[1]; 15 mg/kg, 6 hr-i.v. infusion, Q2Dx7 then Q2Dx5, listed as Fludelone
  Tumor disappearance (mice): 1/3
[1]; 30 mg/kg Q2Dx7, 6 hr-i.v. infusion (first cycle)
  Tumor disappearance (mice): 2 out of 4
[1]; 30 mg/kg, 6 hr-i.v. infusion, Q2Dx7 then Q2Dx5, listed as 26-F3-9,10-deH-dEpo B
  Tumor disappearance (mice): ¾
[1]; 30 mg/kg, 6 hr-i.v. infusion, Q2Dx7 then Q2Dx5, listed as Fludelone
  Tumor disappearance (mice): 3 out of 4 and 3/4
[1]; 30 mg/kg, Q2Dx7 then Q2Dx5
  Final tumor suppression: 99.8%
[2]
  Cell kill: > 11.6 log
